Experimental data taken from the supplement of paper PMC10307832.

What was measured:
Assay in all cases: relative viability (nuclei count vs DMSO), 5 days (fraction); higher = more cells survive
Trametinib + Alpelisib = compound: CC(=O)Nc1cccc(-n2c(=O)n(C3CC3)c(=O)c3c(Nc4ccc(I)cc4F)n(C)c(=O)c(C)c32)c1 [Trametinib] + Cc1nc(NC(=O)N2CCC[C@H]2C(N)=O)sc1-c1ccnc(C(C)(C)C(F)(F)F)c1 [Alpelisib] (partner 2 µM)
Method in brief: (§1)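 Relative viability was taken as the ratio of nuclei in treated wells to nuclei in vehicle wells. Lung cancer cell lines in 1536-well plates received compounds by pin tool one day after seeding, either one drug alone or a fixed anchor-drug dose plus five library-drug doses (not always all listed) in √10 steps. Nuclei were counted on 4× images after 5 days of treatment, and values are medians of duplicate plates.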

[1] = compound: CN1C=C(C2=CC=CC=C21)/C=C\3/C4=C(C=CC=N4)NC3=O + O=C(c1cc(Cc2n[nH]c(=O)c3ccccc23)ccc1F)N1CCN(C(=O)C2CC2)CC1 [Olaparib] (partner 8 µM)
Method in brief: as §1

Trametinib + Tozasertib = compound: CC(=O)Nc1cccc(-n2c(=O)n(C3CC3)c(=O)c3c(Nc4ccc(I)cc4F)n(C)c(=O)c(C)c32)c1 [Trametinib] + Cc1cc(Nc2cc(N3CCN(C)CC3)nc(Sc3ccc(NC(=O)C4CC4)cc3)n2)n[nH]1 [Tozasertib] (partner 0.1 µM)
Method in brief: as §1

[2] = compound: CN1C=C(C2=CC=CC=C21)/C=C\3/C4=C(C=CC=N4)NC3=O + CC1(C)CCC(c2ccc(Cl)cc2)=C(CN2CCN(c3ccc(C(=O)NS(=O)(=O)c4ccc(N[C@H](CCN5CCOCC5)CSc5ccccc5)c(S(=O)(=O)C(F)(F)F)c4)cc3)CC2)C1 [Navitoclax] (partner 0.5 µM)
Method in brief: as §1

| Cell Line | relative viability (Trametinib + Alpelisib; first compound 0.0025 µM) | relative viability (Trametinib + Alpelisib; first compound 0.007906 µM) | relative viability (Trametinib + Alpelisib; first compound 0.025 µM) | relative viability (Trametinib + Alpelisib; first compound 0.07906 µM) | relative viability (Trametinib + Alpelisib; first compound 0.25 µM) | relative viability ([1]; first compound 0.02 µM) | relative viability ([1]; first compound 0.06325 µM) | relative viability ([1]; first compound 0.2 µM) | relative viability ([1]; first compound 0.6325 µM) | relative viability ([1]; first compound 2 µM) | relative viability (Trametinib + Tozasertib; first compound 0.0025 µM) | relative viability (Trametinib + Tozasertib; first compound 0.007906 µM) | relative viability (Trametinib + Tozasertib; first compound 0.025 µM) | relative viability (Trametinib + Tozasertib; first compound 0.07906 µM) | relative viability (Trametinib + Tozasertib; first compound 0.25 µM) | relative viability ([2]; first compound 0.02 µM) | relative viability ([2]; first compound 0.06325 µM) | relative viability ([2]; first compound 0.2 µM) | relative viability ([2]; first compound 0.6325 µM) | relative viability ([2]; first compound 2 µM) |
| --- | --- | --- | --- | --- | --- | --- | --- | --- | --- | --- | --- | --- | --- | --- | --- | --- | --- | --- | --- | --- |
| NCI-H2009 | 0.88 | 0.72 | 0.444 | 0.485 | 0.362 | 0.598 | 0.636 | 0.703 | 0.677 | 0.604 | 0.689 | 0.489 | 0.378 | 0.302 | 0.244 | 1.11 | 1.12 | 1.2 | 1.24 | 1.24 |
| SW 900 |  |  |  |  |  | 0.463 |  |  | 0.768 | 0.655 | 0.579 | 0.547 | 0.724 | 0.511 | 0.412 |  |  |  |  |  |
| NCI-H441 | 0.836 | 0.659 | 0.638 | 0.533 | 0.33 | 0.52 | 0.47 | 0.611 | 0.405 | 0.588 | 0.647 | 0.677 | 0.523 | 0.461 | 0.525 | 1.08 |  | 0.906 | 0.596 | 0.875 |
| NCI-H1623 |  |  |  |  |  |  |  |  |  |  | 0.355 | 0.364 | 0.299 | 0.256 | 0.314 |  |  |  |  |  |
| NCI-H1437 | 0.908 | 0.342 | 0.22 | 0.219 | 0.208 | 0.628 | 0.644 | 0.657 | 0.681 | 0.658 | 0.266 | 0.289 | 0.239 | 0.204 | 0.175 | 1.08 | 1.08 | 1.18 | 1.18 | 1.19 |
| PC-14 | 0.994 | 0.892 | 0.949 | 0.654 | 0.46 | 0.213 | 0.237 | 0.197 | 0.235 | 0.251 | 0.508 | 0.527 | 0.46 | 0.364 | 0.156 | 1.05 | 0.985 | 1.14 | 0.971 | 0.989 |
| LCLC-103H | 0.974 | 0.875 | 0.665 | 0.81 | 0.624 | 0.764 | 0.727 | 0.801 | 0.825 | 0.808 | 0.495 | 0.451 | 0.417 | 0.406 | 0.35 |  |  |  |  |  |
| COR-L23 | 0.766 | 0.723 | 0.668 | 0.436 | 0.241 | 0.349 | 0.289 | 0.274 | 0.283 | 0.312 | 0.193 | 0.208 | 0.165 | 0.178 | 0.149 | 1.19 | 0.983 | 1.03 | 1 | 1.09 |
| H3255 | 0.684 | 0.566 | 0.503 | 0.41 | 0.317 | 0.64 | 0.554 | 0.55 | 0.606 | 0.602 | 0.572 | 0.777 | 0.579 | 0.514 | 0.411 | 0.547 | 0.484 | 0.422 | 0.439 | 0.425 |
| NCI-H358 | 0.563 | 0.373 | 0.277 | 0.269 | 0.248 | 0.607 | 0.534 | 0.564 | 0.565 | 0.507 | 0.112 | 0.107 | 0.0799 | 0.0885 | 0.0721 |  |  |  |  |  |
| ABC-1 | 0.729 | 0.703 | 0.564 | 0.583 | 0.554 | 0.976 | 0.745 | 0.612 | 0.826 | 0.86 | 0.169 | 0.153 | 0.154 | 0.148 | 0.158 |  |  |  |  |  |
| EBC-1 | 0.901 | 0.65 | 0.313 | 0.21 | 0.206 | 0.728 | 0.68 | 0.623 | 0.625 | 0.585 |  |  |  |  |  | 0.37 | 0.426 | 0.384 | 0.48 | 0.498 |
| NCI-H1703 | 0.367 | 0.373 | 0.28 | 0.306 | 0.29 | 0.377 | 0.513 | 0.419 | 0.401 | 0.421 |  |  |  |  |  | 1.06 | 1.03 | 1.01 | 0.966 | 0.998 |
| NCI-H1563 | 0.94 | 0.985 | 0.992 | 0.968 | 0.628 |  |  |  |  |  |  |  |  |  |  |  |  |  |  |  |
| NCI-H1299 | 1.04 | 1.08 | 0.911 | 0.799 | 0.744 | 0.96 | 0.97 | 1 | 1 | 0.952 |  |  |  |  |  | 1.04 | 0.988 | 1.02 | 1.12 | 1.02 |
| A549 | 0.6 | 0.37 | 0.206 | 0.158 | 0.0675 | 0.325 | 0.352 |  | 0.278 | 0.355 |  |  |  |  |  | 1.36 | 1.27 | 1.15 | 1.24 | 1.15 |
| NCI-H522 |  |  |  |  |  | 0.615 | 0.685 | 0.679 | 0.556 | 0.691 | 0.583 | 0.529 | 0.455 | 0.526 | 0.446 |  |  |  |  |  |
| NCI-H1650 |  |  |  |  |  | 0.843 | 0.69 | 0.718 | 0.714 | 0.749 | 0.422 | 0.434 | 0.397 | 0.374 | 0.23 | 0.901 | 0.984 | 0.927 | 0.918 | 1.19 |
| NCI-H1648 |  |  |  |  |  | 1.26 | 1.01 | 1.02 | 0.74 | 0.496 |  | 0.611 | 0.515 | 0.4 | 0.352 |  |  |  |  |  |
| NCI-H661 | 0.607 | 0.654 | 0.411 | 0.257 | 0.264 | 0.825 | 0.722 | 0.791 | 0.89 | 0.822 | 0.365 | 0.378 | 0.432 | 0.389 | 0.404 |  |  |  |  |  |
| NCI-H2342 |  |  |  |  |  | 0.49 | 0.449 | 0.47 | 0.453 | 0.461 | 0.488 | 0.435 |  | 0.516 | 0.492 |  |  |  |  |  |
| Calu-6 | 0.974 | 0.414 | 0.231 | 0.156 | 0.16 | 0.504 | 0.528 | 0.569 | 0.488 | 0.787 |  |  |  |  |  | 0.804 | 0.772 | 0.746 | 0.908 | 0.859 |
